In US5858980A, “Peptide fragments of myelin basic protein” (Autoimmune, Inc., priority 1995, dated 1999):

Legend:
[1] = test system: short term T-cell lines from peripheral blood mononuclear cells; assay: T-cell line reactivity to MBP, PLP and MBP peptides (proliferation assay); assay type: cell-based, human; conditions: for mean frequency of T-cell lines reactive to the peptide, MS vs controls (FIG. 1): MS patients compared with combined normal and other neurologic disease controls; for MEAN FREQUENCY Ag REACTIVE LINES: mean +/- SEM
Method: A rapid T-cell cloning technique was used to examine whether there were immunodominant epitopes on human MBP reactive with Class II MHC phenotypes and the frequency of such reactivity. A total of 15,824 short term T-cell lines were generated from 51 human subjects by culturing peripheral blood mononuclear cells ([…]) with purified MBP (100 μg) followed 3 days later, and then every 3-4 days, by the addition of interleukin-2 (IL-2; from ABI, Columbia, Md.) and 2 units recombinant interleukin-4 (IL-4; Genzyme, Boston, Mass.). On Day 13 of culture, an aliquot from each line was tested for reactivity to MBP using the following proliferation assay: T-cell clones (1×10^5 cells/well) were plated in triplicate and cocultured with appropriate stimuli (i.e. 100 μg whole MBP or 5% IL-2) for 72 hours at 37° C., 90% humidity, 5% CO2, in 96 well flat bottomed microtiter plates (Costar). The cells were pulsed with 2 μCi [^3 H]TdR (2 Ci/mmole, New England Nuclear, Boston, Mass.) for the last 18 hours of culture. APCs were prepared by pulsing human Epstein-Barrvirus transformed human B-cells (the virus being commercially available from ATCC) or L-cells which are mouse cells transfected with human DR2 (L-cells are commercially available from ATCC under accession No. ATCC-CCL1 and can be transfected according to the method of Wilkinson, D. et al, J. Exp. Med., 1988, 167:1442-1458 using DNA encoding DR2 as per Wu, S. et al J. Immunol., 1987, 138:2953). B-cells or L-cells were used at 1×10^6 cells/well in complete media either in the presence or absence of 40 pM MBP or phospholipid protein (PLP) for 2 hours at 37° C., washing twice with 4° C. Hanks (Whittaker), followed by irradiation with 5000 rad. at 4° C. To stimulate T-cells without accessory APCs, 2 μM of MBP, PLP, or the appropriate fragment was added directly to the cells for the duration of the culture: 48 hours, followed by pulsing […] and then harvesting. Ten thousand APC's were used for 100,000 T-cell clones.
T-cell lines shown to be reactive to MBP or PLP were then tested using the same technique for reactivity to overlapping oligopeptide 20-mers encompassing the human MBP sequence as shown in Table 1 above. MBP and PLP reactivity frequency analysis was performed on patients with definite, relapsing-remitting MS (as diagnosed by Magnetic Resonance Imaging (MRI) and clinical examination), as well as on subjects with other neurologic diseases and on normal subjects (all age- and sex-matched to the MS patients).

actively induced EAE = assay: suppression of actively induced EAE (MBP/CFA immunization); assay type: in vivo, Lewis rats
[2] = other neurological disease (n = 10)

In the case of “143-168: human MBP fragment of amino acids 143-168, second immunodominant domain (RHGSKYLATASTMDHARHGFLPRHRD; UniProt P02686 143-168, looked up, fragment)”, the “mean frequency of T-cell lines reactive to the peptide, MS vs controls (FIG. 1)” value [1] is reported as “both MS and control subjects showed high frequencies”, the “MBP-reactive cell lines that reacted with either MBP residues 84-102 or 143-168” value ([1]; cell lines from patients with MS) is reported as 70-80% and the “MBP-reactive T-cell lines that recognized either the 84-102 or the 143-168 peptide” value ([1]; control groups) is reported as “about 34%”. For the same molecule, the “Peptide Reactivity (Fraction of MBP-Reactive Lines)” value ([1]; subject NS-dd, stimulus IL-2) was 1/2, the “Peptide Reactivity (Fraction of MBP-Reactive Lines)” value ([1]; subject NS-dd, stimulus MBP) was 6/12 and the “Peptide Reactivity (Fraction of MBP-Reactive Lines)” value ([1]; subject NS-jl, stimulus IL-2) was 5/12. The “Peptide Reactivity (Fraction of MBP-Reactive Lines)” value ([1]; subject NS-kw, stimulus MBP) was 5/8, the “Peptide Reactivity (Fraction of MBP-Reactive Lines)” value ([1]; subject five, stimulus IL-2) was 5/6 and the “Peptide Reactivity (Fraction of MBP-Reactive Lines)” value ([1]; subject five, stimulus MBP) was 6/7. The “Peptide Reactivity (Fraction of MBP-Reactive Lines)” value ([1]; subject seven, stimulus IL-2) was 2/3, the “Peptide Reactivity (Fraction of MBP-Reactive Lines)” value ([1]; subject seven, stimulus MBP) was 5/8 and the “Peptide Reactivity (Fraction of MBP-Reactive Lines)” value ([1]; subject six, stimulus IL-2) was 1/2. The “Peptide Reactivity (Fraction of MBP-Reactive Lines)” value ([1]; subject three, stimulus IL-2) was 2/2, the “Peptide Reactivity (Fraction of MBP-Reactive Lines)” value ([1]; subject three, stimulus MBP) was 2/2 and the “Peptide Reactivity (Fraction of MBP-Reactive Lines)” value ([1]; subject two, stimulus IL-2) was 4/4. For the same molecule, the “Peptide Reactivity (Fraction of MBP-Reactive Lines)” value ([1]; subject two, stimulus MBP) was 8/10.

For “HHPARTAHYGSLPQKSEGRT [61-82, human MBP amino acid residues 61-82]”, the “mean frequency of T-cell lines reactive to the peptide, MS vs controls (FIG. 1)” value [1] was “Significant but less striking increases”.

“guinea pig MBP peptide 131-150: control guinea pig MBP peptide (DYKSKGFKGAHDAQGTLSKI; UniProt P25188 131-150, looked up, fragment)” was tested, and the “suppression of EAE via IV tolerization” value (actively induced EAE; intravenous administration prior to immunization (FIG. 7)) was “did not suppress” and the “suppression of EAE via oral tolerization” value (actively induced EAE; oral administration prior to immunization (FIG. 7)) was “did not suppress”.

B1: PLP: proteolipid protein, myelin autoantigen (protein, UniProt P60201 2-277, looked up)
Myelin proteolipid protein: GLLECCARCLVGAPFASLVATGLCFFGVALFCGCGHEALTGTEKLIETYFSKNYQDYEYLINVIHAFQYVIYGTASFFFLYGALLLAEGFYTTGAVRQIFGDYKTTICGKGLSATVTGGQKGRGSRGQHQAHSLERVCHCLGKWLGHPDKFVGITYALTVVWLLVFACSAVPVYIYFNTWTTCQSIAFPSKTSASIGSLCADARMYGVLPWNAFPGKVCGSNLLSICKTAEFQMTFHLFIAAFVGAAATLVSLLTFMIAATYNFAVLKLMGRGTKF
In the case of B1, the “#Ag REACTIVE LINES / TOTAL # LINES” value ([1]; MS patients (n = 23)) is reported as 20/432, the “MEAN FREQUENCY Ag REACTIVE LINES” value ([1]; MS patients (n = 23), per-subject reactive/total lines) is reported as 3.34 ± 1.56 and the “#Ag REACTIVE LINES / TOTAL # LINES” value [1, 2] is reported as 3/384. The “MEAN FREQUENCY Ag REACTIVE LINES” value [1, 2] was 0.9 ± 0.62.
